Test results from ChEMBL document CHEMBL1201862, “PubChem BioAssay data set” (2004).
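96-well plates; 48 h exposure; 5 concentrations. Endpoints by linear interpolation between flanking doses. Not reached: highest tested concentration assigned. GI50 = concentration required for 50% inhibition of growth.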 The source made the active and inactive calls. Cut-off read from the data, not from the text of the source: active = GI50 up to about 1.1 µM and inactive = higher.

How the values were obtained:
Assay in all cases: NCI tumour cell line growth inhibition, 48 h
EKVX = test system: EKVX
SW-620 = test system: SW-620
Malme-3M = test system: Malme-3M
K562 = test system: K562
HT-29 = test system: HT-29
UO-31 = test system: UO-31
RPMI-8226 = test system: RPMI-8226
HOP-92 = test system: HOP-92
SK-MEL-28 = test system: SK-MEL-28
Hs-578T = test system: Hs-578T
SK-MEL-2 = test system: SK-MEL-2
SNB-19 = test system: SNB-19
OVCAR-3 = test system: OVCAR-3
MCF7 = test system: MCF7
NCI-H522 = test system: NCI-H522
NCI-H460 = test system: NCI-H460
LOX IMVI = test system: LOX IMVI
CCRF-CEM = test system: CCRF-CEM
OVCAR-5 = test system: OVCAR-5
A549 = test system: A549
A498 = test system: A498
IGROV-1 = test system: IGROV-1
U-251 = test system: U-251
OVCAR-4 = test system: OVCAR-4
SN12C = test system: SN12C
T47D = test system: T47D
SK-OV-3 = test system: SK-OV-3
MOLT-4 = test system: MOLT-4
KM12 = test system: KM12
HCC 2998 = test system: HCC 2998
NCI/ADR-RES = test system: NCI/ADR-RES
ACHN = test system: ACHN
SF-295 = test system: SF-295
HCT-116 = test system: HCT-116
MDA-MB-435 = test system: MDA-MB-435
RXF 393 = test system: RXF 393
BT-549 = test system: BT-549
MDA-N = test system: MDA-N
MDA-MB-231 = test system: MDA-MB-231
NCI-H226 = test system: NCI-H226
NCI-H23 = test system: NCI-H23
786-0 = test system: 786-0
CAKI-1 = test system: CAKI-1
OVCAR-8 = test system: OVCAR-8
COLO 205 = test system: COLO 205
HL-60 = test system: HL-60
UACC-62 = test system: UACC-62
SF-268 = test system: SF-268
PC-3 = test system: PC-3
UACC-257 = test system: UACC-257
SF-539 = test system: SF-539
HOP-62 = test system: HOP-62
HCT-15 = test system: HCT-15
SK-MEL-5 = test system: SK-MEL-5
SNB-75 = test system: SNB-75
DU-145 = test system: DU-145
TK-10 = test system: TK-10
M14 = test system: M14
SR = test system: SR

O=c1c(Cc2cccc(Cc3c(O)oc4ccccc4c3=O)c2)c(O)oc2ccccc12
GI50 (EKVX): > 100 µM (inactive) | GI50 (SW-620): > 100 µM (inactive) | GI50 (Malme-3M): > 100 µM (inactive) | GI50 (K562): > 100 µM (inactive) | GI50 (HT-29): > 100 µM (inactive) | GI50 (UO-31): > 100 µM (inactive) | GI50 (RPMI-8226): > 100 µM (inactive) | GI50 (HOP-92): > 100 µM (inactive) | GI50 (SK-MEL-28): > 100 µM (inactive) | GI50 (Hs-578T): > 100 µM (inactive) | GI50 (SK-MEL-2): > 100 µM (inactive) | GI50 (SNB-19): > 100 µM (inactive) | GI50 (OVCAR-3): > 100 µM (inactive) | GI50 (MCF7): 62.4 µM (inactive) | GI50 (NCI-H522): > 100 µM (inactive) | GI50 (NCI-H460): > 100 µM (inactive) | GI50 (LOX IMVI): > 100 µM (inactive) | GI50 (CCRF-CEM): > 100 µM (inactive) | GI50 (OVCAR-5): > 100 µM (inactive) | GI50 (A549): > 100 µM (inactive) | GI50 (A498): > 100 µM (inactive) | GI50 (IGROV-1): > 100 µM (inactive) | GI50 (U-251): > 100 µM (inactive) | GI50 (OVCAR-4): > 100 µM (inactive) | GI50 (SN12C): > 100 µM (inactive) | GI50 (T47D): > 100 µM (inactive) | GI50 (SK-OV-3): > 100 µM (inactive) | GI50 (MOLT-4): > 100 µM (inactive) | GI50 (KM12): > 100 µM (inactive) | GI50 (HCC 2998): > 100 µM (inactive) | GI50 (NCI/ADR-RES): > 100 µM (inactive) | GI50 (ACHN): > 100 µM (inactive) | GI50 (SF-295): > 100 µM (inactive) | GI50 (HCT-116): > 100 µM (inactive) | GI50 (MDA-MB-435): > 100 µM (inactive) | GI50 (RXF 393): > 100 µM (inactive) | GI50 (BT-549): > 100 µM (inactive) | GI50 (MDA-N): > 100 µM (inactive) | GI50 (MDA-MB-231): > 100 µM (inactive) | GI50 (NCI-H226): > 100 µM (inactive) | GI50 (NCI-H23): > 100 µM (inactive) | GI50 (786-0): > 100 µM (inactive) | GI50 (CAKI-1): > 100 µM (inactive) | GI50 (OVCAR-8): > 100 µM (inactive) | GI50 (COLO 205): > 100 µM (inactive) | GI50 (HL-60): > 100 µM (inactive) | GI50 (UACC-62): > 100 µM (inactive) | GI50 (SF-268): > 100 µM (inactive) | GI50 (PC-3): > 100 µM (inactive) | GI50 (UACC-257): > 100 µM (inactive) | GI50 (SF-539): > 100 µM (inactive) | GI50 (HOP-62): > 100 µM (inactive) | GI50 (HCT-15): > 100 µM | GI50 (SK-MEL-5): > 100 µM (inactive) | GI50 (SNB-75): 43 µM (inactive) | GI50 (DU-145): > 100 µM (inactive) | GI50 (TK-10): > 100 µM (inactive) | GI50 (M14): > 100 µM (inactive)

N#C/C(=C\c1ccc(Br)cc1)c1nc(-c2cc3ccccc3oc2=O)cs1
GI50 (EKVX): 13.3 µM (inactive) | GI50 (SW-620): 19.8 µM (inactive) | GI50 (Malme-3M): 10.5 µM (inactive) | GI50 (K562): 37.2 µM (inactive) | GI50 (HT-29): 23.3 µM (inactive) | GI50 (UO-31): 20.2 µM (inactive) | GI50 (RPMI-8226): 44.1 µM (inactive) | GI50 (HOP-92): 11 µM (inactive) | GI50 (SK-MEL-28): 28.2 µM (inactive) | GI50 (Hs-578T): 11.5 µM (inactive) | GI50 (SK-MEL-2): 17.1 µM (inactive) | GI50 (SNB-19): 10.7 µM (inactive) | GI50 (SR): 34 µM (inactive) | GI50 (MCF7): 18.4 µM (inactive) | GI50 (NCI-H522): 7.98 µM (inactive) | GI50 (NCI-H460): 16.7 µM (inactive) | GI50 (LOX IMVI): 24.8 µM (inactive) | GI50 (CCRF-CEM): 41.8 µM (inactive) | GI50 (OVCAR-5): 31 µM (inactive) | GI50 (A549): 35.1 µM (inactive) | GI50 (IGROV-1): 12.3 µM (inactive) | GI50 (U-251): 9.93 µM (inactive) | GI50 (OVCAR-4): 17.2 µM (inactive) | GI50 (SN12C): 20 µM (inactive) | GI50 (T47D): 22.7 µM (inactive) | GI50 (SK-OV-3): 18.9 µM (inactive) | GI50 (MOLT-4): > 50 µM (inactive) | GI50 (KM12): 19.1 µM (inactive) | GI50 (HCC 2998): 19.6 µM (inactive) | GI50 (NCI/ADR-RES): 11.9 µM (inactive) | GI50 (ACHN): 10.8 µM (inactive) | GI50 (SF-295): 18.5 µM (inactive) | GI50 (HCT-116): 17.5 µM (inactive) | GI50 (MDA-MB-435): 23.5 µM (inactive) | GI50 (RXF 393): 19.2 µM (inactive) | GI50 (BT-549): 7.29 µM (inactive) | GI50 (MDA-N): 17.7 µM (inactive) | GI50 (MDA-MB-231): 10.1 µM (inactive) | GI50 (NCI-H226): 11.9 µM (inactive) | GI50 (786-0): 17 µM (inactive) | GI50 (CAKI-1): 48.4 µM (inactive) | GI50 (OVCAR-8): 15.9 µM (inactive) | GI50 (COLO 205): > 50 µM (inactive) | GI50 (HL-60): > 50 µM (inactive) | GI50 (UACC-62): 10.2 µM (inactive) | GI50 (SF-268): 14.5 µM (inactive) | GI50 (PC-3): 21 µM (inactive) | GI50 (UACC-257): 11.7 µM (inactive) | GI50 (SF-539): 14 µM (inactive) | GI50 (HOP-62): 8.73 µM (inactive) | GI50 (HCT-15): 32.1 µM | GI50 (SK-MEL-5): 21.8 µM (inactive) | GI50 (SNB-75): 7.14 µM (inactive) | GI50 (DU-145): 15.7 µM (inactive) | GI50 (TK-10): 10.2 µM (inactive) | GI50 (M14): 14.9 µM (inactive)

CCN1CCC(O)(c2ccc(Oc3ccc(F)cc3)cc2)C(C(=O)c2ccc(Oc3ccc(F)cc3)cc2)C1 (configuration not stated)
GI50 (EKVX): 16.6 µM (inactive) | GI50 (SW-620): 15.6 µM (inactive) | GI50 (Malme-3M): 15.4 µM (inactive) | GI50 (K562): 12.7 µM (inactive) | GI50 (HT-29): 10.6 µM (inactive) | GI50 (RPMI-8226): 2.79 µM (inactive) | GI50 (HOP-92): 11.9 µM (inactive) | GI50 (SK-MEL-28): 15.8 µM (inactive) | GI50 (Hs-578T): 17.2 µM (inactive) | GI50 (SK-MEL-2): 17.2 µM (inactive) | GI50 (SNB-19): 15.8 µM (inactive) | GI50 (OVCAR-3): 15.2 µM (inactive) | GI50 (SR): 2.33 µM (inactive) | GI50 (MCF7): 11.5 µM (inactive) | GI50 (LOX IMVI): 11.8 µM (inactive) | GI50 (CCRF-CEM): 10.1 µM (inactive) | GI50 (OVCAR-5): 15 µM (inactive) | GI50 (A549): 15 µM (inactive) | GI50 (IGROV-1): 11 µM (inactive) | GI50 (U-251): 16.2 µM (inactive) | GI50 (OVCAR-4): 15 µM (inactive) | GI50 (SN12C): 14.2 µM (inactive) | GI50 (T47D): 13.4 µM (inactive) | GI50 (SK-OV-3): 17.8 µM (inactive) | GI50 (MOLT-4): 14 µM (inactive) | GI50 (KM12): 4.42 µM (inactive) | GI50 (HCC 2998): 11.4 µM (inactive) | GI50 (NCI/ADR-RES): 10.3 µM (inactive) | GI50 (ACHN): 13.8 µM (inactive) | GI50 (SF-295): 15.7 µM (inactive) | GI50 (HCT-116): 13.6 µM (inactive) | GI50 (MDA-MB-435): 16.8 µM (inactive) | GI50 (RXF 393): 12.2 µM (inactive) | GI50 (BT-549): 15.7 µM (inactive) | GI50 (MDA-N): 16.9 µM (inactive) | GI50 (MDA-MB-231): 13.2 µM (inactive) | GI50 (NCI-H226): 13.6 µM (inactive) | GI50 (NCI-H23): 14.8 µM (inactive) | GI50 (786-0): 11.6 µM (inactive) | GI50 (CAKI-1): 13 µM (inactive) | GI50 (OVCAR-8): 15 µM (inactive) | GI50 (COLO 205): 16.6 µM (inactive) | GI50 (UACC-62): 14.8 µM (inactive) | GI50 (SF-268): 16.9 µM (inactive) | GI50 (PC-3): 13.4 µM (inactive) | GI50 (UACC-257): 15.8 µM (inactive) | GI50 (SF-539): 18.5 µM (inactive) | GI50 (HOP-62): 15.8 µM (inactive) | GI50 (HCT-15): 11.5 µM | GI50 (SNB-75): 15.5 µM (inactive) | GI50 (DU-145): 12.2 µM (inactive) | GI50 (TK-10): 11 µM (inactive) | GI50 (M14): 16.9 µM (inactive)
